This series concerns tumor-bearing mice. In words: In vivo anti-tumor therapeutic effect in tumor-bearing mice. The note with it: day 25 compared to day 0 post-injection; intravenous, every 72 hours, 5 injections. As to the method: In vivo mice experiments were conducted to evaluate the anti-tumor therapeutic effects of PTX-loaded high (55K/SH-PTX; 39.6% drug loading) and low-drug loading formulations (55K/SH-PTX; 3.5% drug loading) in tumor-bearing mice. Four formulations (PBS, Free PTX, High DL NP, and Low DL NP_where DL is drug loading and NP is core-shell polymer nanoparticle) were injected intravenously every 72 hours for 5 injections in total. The body weight and tumor volume of the mice were monitored every two days. […] The weight increase was higher than the Low DL NP group (4.4% increase) and Free PTX group (2.9% increase).

Molecules are shown by their SMILES.

As for `CC(=O)O[C@H]1C(=O)[C@@]2(C)[C@H]([C@H](OC(=O)c3ccccc3)[C@]3(O)C[C@H](OC(=O)[C@H](O)[C@@H](NC(=O)c4ccccc4)c4ccccc4)C(C)=C1C3(C)C)[C@]1(OC(C)=O)CO[C@@H]1C[C@@H]2O` [Free PTX, paclitaxel], the body weight increase came to 2.9%.

Values taken from US11766409B2, “Core-shell polymer nanoparticle” (THE UNIVERSITY OF QUEENSLAND, priority 2018, dated 2023).
